17 compounds from US9708336B2, “Metallo-beta-lactamase inhibitors” (priority 2014, dated 2017) can be followed below.

Read-outs that look alike come from different tables or passages of the source.

The target of one test is VIM-1 (Pseudomonas aeruginosa (strain ATCC 15692 / DSM 22644 / CIP 104116 / JCM 14847 / LMG 12228 / 1C / PRS 101 / PAO1), UniProt A0A0F7KYQ8). Briefly: Enzyme activity: determination of IC50, fluorescence assay with CCF2-FA substrate (VIM-1). Particulars: CCF2-FA fluorescence assay. The format is biochemical.
A further test concerns the target IMP-1 (Serratia marcescens, UniProt P52699). Put plainly: biochemical. The format is biochemical. As to conditions: IMP-1 enzyme, CCF2-FA fluorescence assay; read-out: IMP-1 IC50.
Test [1] concerns Serratia marcescens expressing IMP-1 (CL5741). Put plainly: Antibiotic potentiation activity: synergistic concentration (MITC95) with imipenem, OD600 growth. Particulars: Serratia marcescens expressing IMP-1 (CL5741), 95% growth inhibition. In kind it is cell-based. In outline: (§1)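 Each strain, suspended in saline from overnight colonies and diluted 1:100 into 1.1× CAMHB, is dosed with imipenem at 4 μg/ml (or 1 μg/ml) plus compound, incubated 22–24 h at 35 °C and read by absorbance.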

The subject of test [2] is Escherichia coli expressing NDM-1 (CLB30016). The test is described as above. The format is cell-based. As to conditions: Escherichia coli expressing NDM-1 (CLB30016), 95% growth inhibition. In outline: as §1
Test [3] relates to Klebsiella pneumoniae expressing VIM-1 (IHMA599644). The test is described as above. In kind it is cell-based. Particulars: Klebsiella pneumoniae expressing VIM-1 (IHMA599644), 95% growth inhibition. In outline:
as §1

A further test addresses NDM-1 (Klebsiella pneumoniae, UniProt C7C422). Briefly: biochemical. As to conditions: NDM-1 enzyme, CCF2-FA fluorescence assay; read-out: NDM-1 IC50. In kind it is biochemical.
[4] abbreviates: VIM-1 enzyme, read-out: VIM-1 IC50.

Broadly, the IC50 is the midpoint of a concentration-inhibition curve.

IMP-1, sequence (P52699 whole entry, looked up): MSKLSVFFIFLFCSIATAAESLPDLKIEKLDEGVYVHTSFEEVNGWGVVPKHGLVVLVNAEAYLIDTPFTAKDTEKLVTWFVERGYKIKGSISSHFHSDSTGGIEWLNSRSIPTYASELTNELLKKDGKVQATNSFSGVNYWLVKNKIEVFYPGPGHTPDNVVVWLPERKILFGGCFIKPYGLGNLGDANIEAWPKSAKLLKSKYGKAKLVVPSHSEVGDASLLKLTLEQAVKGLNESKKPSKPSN
NDM-1, sequence (C7C422 whole entry, looked up, species assumed): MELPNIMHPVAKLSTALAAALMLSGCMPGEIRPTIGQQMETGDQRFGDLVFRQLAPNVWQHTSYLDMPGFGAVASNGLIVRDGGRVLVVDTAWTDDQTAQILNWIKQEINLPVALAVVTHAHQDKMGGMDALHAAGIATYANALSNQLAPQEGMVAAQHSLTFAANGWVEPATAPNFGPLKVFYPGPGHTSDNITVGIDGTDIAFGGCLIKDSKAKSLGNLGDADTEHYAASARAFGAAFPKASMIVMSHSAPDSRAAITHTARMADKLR

For the compound `NS(=O)(=O)c1cccc(-c2ccc(CNCC3(O)CCC3)cc2)c1-c1nnn[nH]1` [Example 376, 4′-({[(1-hydroxycyclobutyl)methyl]amino}methyl)-2-(1H-tetrazol-5-yl)biphenyl-3-sulfonamide], the half-maximal inhibitory concentration (IC50) came to 50.4 nM against VIM-1 (VIM-1 IC50, VIM-1 enzyme); 96.6 nM at IMP-1; 14.4 nM on NDM-1. Also, in test [1], the “Serratia marcescens MITC95” value was 4.688 µM. The “Escherichia coli MITC95” value in test [2] was 2.344 µM. In addition, the “Klebsiella pneumoniae MITC95” value in test [3] was 15.63 µM.
Take `NS(=O)(=O)c1cccc(-c2ccc(CNCc3ccncn3)cc2)c1-c1nnn[nH]1` [Example 377, 4′-{[(pyrimidin-4-ylmethyl)amino]methyl}-2-(1H-tetrazol-5-yl)biphenyl-3-sulfonamide]: the half-maximal inhibitory concentration (IC50) against VIM-1 (VIM-1 IC50, VIM-1 enzyme) worked out at 256 nM; on IMP-1, 73.7 nM; on NDM-1 it was 5.27 nM. The “Serratia marcescens MITC95” value in test [1] worked out at 3.125 µM. Besides, the “Escherichia coli MITC95” value in test [2] was 1.563 µM. Moreover, the “Klebsiella pneumoniae MITC95” value in test [3] was 200 µM.
For the compound `NS(=O)(=O)c1cccc(-c2ccc(CN3CCC3C(=O)O)cc2)c1-c1nnn[nH]1` (stereo not drawn) [Example 378, 1-{[3′-sulfamoyl-2′-(1H-tetrazol-5-yl)biphenyl-4-yl]methyl}azetidine-2-carboxylic acid], the results for the IC50 at VIM-1 (setting [4]), on IMP-1 and on NDM-1 were 407 nM, 262 nM and 24.6 nM, respectively. For the same compound, the “Serratia marcescens MITC95” value in test [1] was 6.25 µM. Besides, in test [2], the “Escherichia coli MITC95” value stood at 3.125 µM. Also, the “Klebsiella pneumoniae MITC95” value in test [3] was 50 µM.
`NS(=O)(=O)c1cccc(-c2ccc(CNC3CCN(C4CCCC4)CC3)cc2)c1-c1nnn[nH]1` [Example 379, 4′-{[(1-cyclopentylpiperidin-4-yl)amino]methyl}-2-(1H-tetrazol-5-yl)biphenyl-3-sulfonamide]: the values for the IC50 at VIM-1 (setting [4]), on IMP-1 and on NDM-1 were 639 nM, 318 nM and 27.3 nM, respectively. Further, the “Serratia marcescens MITC95” value in test [1] came out at 4.688 µM. The “Escherichia coli MITC95” value in test [2] is 1.563 µM. Besides, the “Klebsiella pneumoniae MITC95” value in test [3] was 200 µM.
Turning to `NS(=O)(=O)c1cccc(-c2ccc(CNCC3(O)CC3)cc2)c1-c1nnn[nH]1` [Example 380, 4′-({[(1-hydroxycyclopropyl)methyl]amino}methyl)-2-(1H-tetrazol-5-yl)biphenyl-3-sulfonamide], the IC50 at VIM-1 (VIM-1 IC50, VIM-1 enzyme) came out at 263 nM; at IMP-1, 335 nM; on NDM-1, 22.2 nM. Further, the “Serratia marcescens MITC95” value in test [1] is 4.688 µM. Also, in test [2], the “Escherichia coli MITC95” value is 1.563 µM. Further, the “Klebsiella pneumoniae MITC95” value in test [3] came out at 62.5 µM.
As for `NS(=O)(=O)c1cccc(-c2ccc(CNCc3nn[nH]n3)cc2)c1-c1nnn[nH]1` [Example 381, 2-(1H-tetrazol-5-yl)-4′-{[(2H-tetrazol-5-ylmethyl)amino]methyl}biphenyl-3-sulfonamide], the IC50 on VIM-1 (setting [4]) is 357 nM; on IMP-1 it was 25.4 nM; on NDM-1, 2.25 nM. In addition, the “Serratia marcescens MITC95” value in test [1] worked out at 0.7813 µM. Moreover, in test [2], the “Escherichia coli MITC95” value came to 1.563 µM. Moreover, the “Klebsiella pneumoniae MITC95” value in test [3] was 50 µM.
On to `NS(=O)(=O)c1cccc(-c2ccc(CNCCc3ncc[nH]3)cc2)c1-c1nnn[nH]1` [Example 382, 4′-({[2-(1H-imidazol-2-yl)ethyl]amino}methyl)-2-(1H-tetrazol-5-yl)biphenyl-3-sulfonamide], for which the IC50 at VIM-1 (setting [4]) is 220 nM; at IMP-1, 212 nM; at NDM-1 it was 12.8 nM. The “Serratia marcescens MITC95” value in test [1] amounted to 3.125 µM. Moreover, the “Escherichia coli MITC95” value in test [2] came to 1.563 µM. In addition, the “Klebsiella pneumoniae MITC95” value in test [3] came out at 50 µM.
On to `NS(=O)(=O)c1cccc(-c2ccc(CNCCn3nccn3)cc2)c1-c1nnn[nH]1` [Example 383, 2-(1H-tetrazol-5-yl)-4′-({[2-(2H-1,2,3-triazol-2-yl)ethyl]amino}methyl)biphenyl-3-sulfonamide], for which the IC50 was found to be 269 nM at VIM-1 (setting [4]), 51.6 nM at IMP-1 and 4.66 nM at NDM-1. Besides, the “Serratia marcescens MITC95” value in test [1] was 1.563 µM. The “Escherichia coli MITC95” value in test [2] came to 1.563 µM. Also, in test [3], the “Klebsiella pneumoniae MITC95” value was 200 µM.
As to `NS(=O)(=O)c1cccc(-c2ccc(CNCCc3c[nH]cn3)cc2)c1-c1nnn[nH]1` [Example 384, 4′-({[2-(1H-imidazol-4-yl)ethyl]amino}methyl)-2-(1H-tetrazol-5-yl)biphenyl-3-sulfonamide], the half-maximal inhibitory concentration (IC50) on VIM-1 (setting [4]) stood at 225 nM; on IMP-1, 293 nM; on NDM-1, 13.6 nM. Besides, the “Serratia marcescens MITC95” value in test [1] turned out to be 4.688 µM. In addition, the “Escherichia coli MITC95” value in test [2] worked out at 1.953 µM. In addition, in test [3], the “Klebsiella pneumoniae MITC95” value worked out at 50 µM.
For the compound `NS(=O)(=O)c1cccc(-c2ccc(CNCCc3cn[nH]c3)cc2)c1-c1nnn[nH]1` [Example 385, 4′-({[2-(1H-pyrazol-4-yl)ethyl]amino}methyl)-2-(1H-tetrazol-5-yl)biphenyl-3-sulfonamide], the IC50 worked out at 357 nM at VIM-1 (setting [4]), 499 nM on IMP-1 and 12.5 nM at NDM-1. The “Serratia marcescens MITC95” value in test [1] came out at 6.25 µM. Also, in test [2], the “Escherichia coli MITC95” value came to 1.563 µM. Besides, the “Klebsiella pneumoniae MITC95” value in test [3] is 50 µM.
On to `NS(=O)(=O)c1cccc(-c2ccc(CN3CCNC(=O)C3)cc2)c1-c1nnn[nH]1` [Example 386, 4′-[(3-oxopiperazin-1-yl)methyl]-2-(1H-tetrazol-5-yl)biphenyl-3-sulfonamide], for which the IC50 amounted to 120 nM at VIM-1 (setting [4]), 32 nM at IMP-1 and 3.23 nM on NDM-1. Moreover, the “Serratia marcescens MITC95” value in test [1] turned out to be 1.563 µM. Also, in test [2], the “Escherichia coli MITC95” value was 6.25 µM. For the same compound, the “Klebsiella pneumoniae MITC95” value in test [3] is greater than 200 µM.
With `NS(=O)(=O)c1cccc(-c2ccc(CN3C[C@H](O)C[C@H]3CO)cc2)c1-c1nnn[nH]1` [Example 387, 4′-{[(2S,4R)-4-hydroxy-2-(hydroxymethyl)pyrrolidin-1-yl]methyl}-2-(1H-tetrazol-5-yl)biphenyl-3-sulfonamide], the IC50 was 445 nM on VIM-1 (setting [4]), 145 nM at IMP-1 and 10.6 nM at NDM-1. The “Serratia marcescens MITC95” value in test [1] was 3.125 µM. The “Escherichia coli MITC95” value in test [2] turned out to be 2.344 µM. In addition, in test [3], the “Klebsiella pneumoniae MITC95” value was determined as 100 µM.
With `NS(=O)(=O)c1cccc(-c2ccc(CNC3CCNC3=O)cc2)c1-c1nnn[nH]1` (stereo not drawn) [Example 388, 4′-{[(2-oxopyrrolidin-3-yl)amino]methyl}-2-(1H-tetrazol-5-yl)biphenyl-3-sulfonamide], the IC50 against VIM-1 (VIM-1 IC50, VIM-1 enzyme) is 273 nM; on IMP-1, 48.6 nM; on NDM-1, 4.28 nM. In addition, the “Serratia marcescens MITC95” value in test [1] worked out at 1.563 µM. Moreover, the “Escherichia coli MITC95” value in test [2] was 1.563 µM. The “Klebsiella pneumoniae MITC95” value in test [3] was 200 µM.
Regarding `NS(=O)(=O)c1cccc(-c2ccc(CNCCc3cc[nH]n3)cc2)c1-c1nnn[nH]1` [Example 389, 4′-({[2-(1H-pyrazol-3-yl)ethyl]amino}methyl)-2-(1H-tetrazol-5-yl)biphenyl-3-sulfonamide], the IC50 at VIM-1 (setting [4]) was 146 nM; on IMP-1, 64 nM; at NDM-1 it was 3.33 nM. Moreover, in test [1], the “Serratia marcescens MITC95” value is 2.344 µM. For the same compound, the “Escherichia coli MITC95” value in test [2] turned out to be 1.563 µM. In addition, the “Klebsiella pneumoniae MITC95” value in test [3] turned out to be 75 µM.
Consider `NS(=O)(=O)c1cccc(-c2ccc(CNCCO)cc2)c1-c1nnn[nH]1` [Example 390, 4′-{[(2-hydroxyethyl)amino]methyl}-2-(1H-tetrazol-5-yl)biphenyl-3-sulfonamide], for which the IC50 at VIM-1 (setting [4]) came to 222 nM; on IMP-1 it was 483 nM; at NDM-1, 12.2 nM. Besides, in test [1], the “Serratia marcescens MITC95” value came out at 6.25 µM. Moreover, the “Escherichia coli MITC95” value in test [2] was found to be 0.7813 µM. Besides, the “Klebsiella pneumoniae MITC95” value in test [3] was 62.5 µM.
In the case of `NS(=O)(=O)c1cccc(-c2ccc(CN3CC[C@H](CO)C3)cc2)c1-c1nnn[nH]1` [Example 392, 4′-{[(3S)-3-(hydroxymethyl)pyrrolidin-l-yl]methyl}-2-(1H-tetrazol-5-yl)biphenyl-3-sulfonamide], the IC50 was 455 nM at VIM-1 (VIM-1 IC50, VIM-1 enzyme); 394 nM at IMP-1; 7.88 nM at NDM-1. The “Serratia marcescens MITC95” value in test [1] turned out to be 3.125 µM. For the same compound, in test [2], the “Escherichia coli MITC95” value came out at 2.344 µM. Also, the “Klebsiella pneumoniae MITC95” value in test [3] was found to be 75 µM.
For `NS(=O)(=O)c1cccc(-c2ccc(CN3CCC(CCO)C3)cc2)c1-c1nnn[nH]1` (stereo not drawn) [Example 393, 4′-{[3-(2-hydroxyethyl)pyrrolidin-1-yl]methyl}-2-(1H-tetrazol-5-yl)biphenyl-3-sulfonamide], the IC50 on VIM-1 (setting [4]) amounted to 509 nM; at IMP-1 it was 338 nM; at NDM-1, 10.8 nM. Further, in test [1], the “Serratia marcescens MITC95” value amounted to 4.688 µM. In addition, the “Escherichia coli MITC95” value in test [2] is 1.563 µM. For the same compound, in test [3], the “Klebsiella pneumoniae MITC95” value amounted to 200 µM.
